{"source": "patent US10398672B2", "about": "“Methods and compositions for targeting cancer stem cells” (Whitehead Institute for Biomedical Research, priority 2014, dated 2019)", "key": {"[1]": {"system": "NAMEC cells", "experiment": "Treatment of NAMEC cells with cAMP analogs (PKA versus EPAC), morphology", "assay_type": "cell-based, human", "conditions": "treatment for 12 days, data not shown"}, "[2]": {"system": "HMLE cells", "experiment": "Dose response to chemotherapeutic drugs, HMLE cells", "assay_type": "cell-based, human", "conditions": "dose response curves FIGS. 8A and 8B"}, "[3]": {"system": "NAMEC cells", "assay_type": "cell-based, human", "conditions": "for susceptibility to inhibition by the drug, in contrast to untreated NAMEC cells: NAMEC cells treated with cholera toxin, FIGS. 8A and 8B"}, "[4]": {"system": "E-cadherin/CDH1 promoter", "assay_type": "cell-based, human"}, "[5]": {"system": "NAMEC cells", "assay_type": "cell-based, human"}, "[6]": {"conditions": "5 mg/kg, previously tested in vivo in mice; cited from earlier work"}, "[7]": {"system": "NAMEC cells", "assay_type": "cell-based, human", "remark": "listed apart in the source"}, "[8]": {"system": "NAMEC cells", "assay_type": "cell-based, human", "remark": "listed apart in the source"}, "[9]": {"system": "NAMEC cells", "assay_type": "cell-based, human", "remark": "listed apart in the source"}, "[10]": {"system": "NAMEC cells", "assay_type": "cell-based, human", "remark": "listed apart in the source"}}, "note": "Like-named read-outs stand apart in the source and are kept apart here."}
{"compound": "Nc1ncnc2c1nc(Br)n2[C@@H]1O[C@@H]2COP(=O)(O)O[C@H]2[C@H]1O", "note": "[8-Br-cAMP]", "values": [{"measurement": "epithelial morphologies displayed by NAMEC cells", "setting": "[1]", "value": "displayed epithelial morphologies"}]}
{"compound": "CC(=O)O[C@H]1C(=O)[C@@]2(C)[C@H]([C@H](OC(=O)c3ccccc3)[C@]3(O)C[C@H](OC(=O)[C@H](O)[C@@H](NC(=O)c4ccccc4)c4ccccc4)C(C)=C1C3(C)C)[C@]1(OC(C)=O)CO[C@@H]1C[C@@H]2O", "note": "[paclitaxel]", "values": [{"measurement": "susceptibility to inhibition by the drug", "setting": "[2]", "value": "susceptible"}, {"measurement": "susceptibility to inhibition by the drug", "setting": "[3]", "value": "highly resistant"}, {"measurement": "susceptibility to inhibition by the drug, in contrast to untreated NAMEC cells", "setting": "[3]", "value": "more susceptible"}]}
{"compound": "COc1cccc2c1C(=O)c1c(O)c3c(c(O)c1C2=O)C[C@@](O)(C(=O)CO)C[C@@H]3O[C@H]1C[C@H](N)[C@H](O)[C@H](C)O1", "note": "[doxorubicin]", "values": [{"measurement": "susceptibility to inhibition by the drug", "setting": "[2]", "value": "susceptible"}, {"measurement": "susceptibility to inhibition by the drug", "setting": "[3]", "value": "highly resistant"}, {"measurement": "susceptibility to inhibition by the drug, in contrast to untreated NAMEC cells", "setting": "[3]", "value": "more susceptible"}]}
{"compound": "C=C[C@@]1(C)CC(=O)[C@]2(O)[C@@]3(C)[C@@H](O)CCC(C)(C)[C@@H]3[C@H](O)[C@H](OC(C)=O)[C@@]2(C)O1", "note": "[forskolin]", "values": [{"measurement": "induce transcription of the E-cadherin reporter compared to the control after normalization to cell number", "setting": "[4]", "value": 40, "unit": "fold"}, {"measurement": "relative CDH1 Promoter luciferase activity normalized by cells number: differential activity between non-CSCs and CSC", "setting": "[4]", "value": "around 40 fold"}, {"measurement": "cells expressing the SC-like CD44hiCD24lo marker profile reverted to the non-SC CD44loCD24hi profile", "setting": "[5]; NAMEC cells, 100 μg/ml cholera toxin or 10 μM forskolin over 12 days, flow cytometry", "value": 95, "unit": "%"}, {"measurement": "toxicities / side-effects in mice", "setting": "[6]", "value": "no reported side-effects"}]}
{"compound": "cholera toxin", "values": [{"measurement": "ability to induce luciferase expression (validation of the screen)", "setting": "[4]", "value": "induce luciferase expression"}, {"measurement": "cell morphology after treatment", "setting": "[5]", "value": "cobblestone-like epithelial morphology"}, {"measurement": "cells expressing the SC-like CD44hiCD24lo marker profile reverted to the non-SC CD44loCD24hi profile", "setting": "[5]", "value": 95, "unit": "%"}, {"measurement": "junctional E-cadherin by fluorescent microscopy", "setting": "[5]", "value": "expressed junctional E-cadherin"}, {"measurement": "mesenchymal marker fibronectin by fluorescence microscopy", "setting": "[5]", "value": "loss of the mesenchymal marker, fibronectin"}, {"measurement": "E-cadherin expression compared to untreated NAMEC cells", "setting": "[7]", "value": "gain of E-cadherin expression"}, {"measurement": "relative expression of mesenchymal markers compared to untreated NAMEC cells", "setting": "[7]", "value": "decrease"}, {"measurement": "invasive properties of NAMEC cells", "setting": "[8]", "value": "loss"}, {"measurement": "migratory properties of NAMEC cells", "setting": "[8]", "value": "loss"}, {"measurement": "mammosphere-forming ability", "setting": "[9]", "value": "complete loss"}, {"measurement": "susceptibility of NAMEC cells to doxorubicin and paclitaxel after induction of MET", "setting": "[3]", "value": "more susceptible"}, {"measurement": "intracellular cAMP concentration in NAMEC cells", "setting": "[10]", "value": "elevated"}]}
